# Reference: patent EP4810052A2, “HCRHR2 SELECTIVE POLYPEPTIDES” (Gubra A/S, priority 2023, dated 2026)
# Where two headings read alike, the source gives them in different places. Starred links: 1 amine or outer side, 2 acyl side, 3 side chain; linkers in the order of their positions; H or OH if unused. Non-standard residues stand in square brackets, D forms with d. Residues, ends and D or L forms follow the SMILES beside them. Groups on a side chain read outwards from the residue. *: point of attachment. C20 diacid = O=C(O)CCCCCCCCCCCCCCCCCCC(=O)*; Pro(cis-4-F) = O=C(O)[C@@H]1C[C@H](F)CN1; γGlu = O=C(O)[C@H](CCC(=O)[*:2])N[*:1]; NMeI = CC[C@H](C)[C@H](NC)C(=O)O; Nle = CCCC[C@H](N)C(=O)O; Ac5c = NC1(C(=O)O)CCCC1; AEEA = NCCOCCOCC(=O)O; Aib = CC(C)(N)C(=O)O
# Tests used:
# [1] = biological target: T1, hCRHR2 (Homo sapiens, UniProt Q13324); assay: HTRF cAMP assay, determination of hCRHR2 potency (peptide libraries 5 conc., purified peptides 11 conc.); type: cell-based
# T1 sequence (Q13324 1-411): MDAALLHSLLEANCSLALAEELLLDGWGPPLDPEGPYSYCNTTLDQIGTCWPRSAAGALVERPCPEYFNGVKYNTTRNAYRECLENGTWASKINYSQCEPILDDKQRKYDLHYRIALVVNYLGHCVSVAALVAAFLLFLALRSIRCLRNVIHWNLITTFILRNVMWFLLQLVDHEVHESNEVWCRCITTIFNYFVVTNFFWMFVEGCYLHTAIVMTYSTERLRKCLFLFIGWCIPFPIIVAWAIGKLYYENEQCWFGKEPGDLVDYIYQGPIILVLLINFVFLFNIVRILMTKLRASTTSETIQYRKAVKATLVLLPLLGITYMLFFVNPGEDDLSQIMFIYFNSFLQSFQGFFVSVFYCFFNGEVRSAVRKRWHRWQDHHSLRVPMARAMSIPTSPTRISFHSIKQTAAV
# Method in brief: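 Potency was read as cAMP accumulation in a stable CHO-K1 line expressing human CRHR2, used in suspension right after thawing. Detection relied on energy transfer from antibody-bound cryptate to d2-cAMP.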
# [2] = biological target: T2, hCRHR1 (Homo sapiens, UniProt P34998); assay: HTRF cAMP assay, determination of hCRHR1 potency (peptide libraries 5 conc., purified peptides 11 conc.); type: cell-based
# T2 sequence (P34998 24-415): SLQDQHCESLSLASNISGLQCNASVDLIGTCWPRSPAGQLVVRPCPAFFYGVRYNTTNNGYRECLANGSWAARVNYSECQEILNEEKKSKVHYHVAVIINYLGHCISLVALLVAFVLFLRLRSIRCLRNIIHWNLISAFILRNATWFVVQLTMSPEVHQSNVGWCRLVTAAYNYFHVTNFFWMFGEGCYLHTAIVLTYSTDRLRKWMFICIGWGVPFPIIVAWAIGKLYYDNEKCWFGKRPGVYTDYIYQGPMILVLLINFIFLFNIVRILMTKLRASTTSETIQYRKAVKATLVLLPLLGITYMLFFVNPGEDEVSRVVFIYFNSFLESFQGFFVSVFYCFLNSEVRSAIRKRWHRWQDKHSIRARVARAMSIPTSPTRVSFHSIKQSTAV
# Method in brief: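 CHO-K1 cells stably expressing human CRHR1, thawed from frozen stocks just before use, were stimulated in suspension with agonist peptides. cAMP was measured by HTRF competitive immunoassay (cryptate anti-cAMP antibody vs d2-cAMP).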
# [3] = library peptides, matched molecular pairs L vs Nle in position X^38, read-out: Potency hCRHR2 pEC50 (converted)
# [4] = library peptides, matched molecular pairs L vs Nle in position X^38, read-out: Potency hCRHR1 pEC50 (converted)
"EC50 [1, 3] [nM]","EC50 [2, 4] [nM]",Structure (SMILES),further results
–,–,CCCC[C@H](NC(=O)[C@@H](NC(=O)[C@H](CCC(=O)O)NC(=O)C(C)(C)NC(=O)[C@H](CC(N)=O)NC(=O)[C@@H](NC(=O)[C@H](CCCCNC(=O)COCCOCCNC(=O)COCCOCCNC(=O)CC[C@H](NC(=O)CC[C@H](NC(=O)CCCCCCCCCCCCCCCCCCC(=O)O)C(=O)O)C(=O)O)NC(=O)[C@H](C)NC(=O)[C@H](CCC(N)=O)NC(=O)[C@H](CCC(=O)O)NC(=O)[C@H](CCCNC(=N)N)NC(=O)[C@H](C)NC(=O)[C@H](C)NC(=O)[C@H](CCCNC(=N)N)NC(=O)[C@H](C)NC(=O)[C@H](CCCNC(=N)N)NC(=O)[C@H](C)NC(=O)[C@H](CCC(N)=O)NC(=O)[C@H](CCC(N)=O)NC(=O)[C@H](CC(C)C)NC(=O)[C@H](CC(C)C)NC(=O)[C@@H](NC(=O)[C@H](CCC(N)=O)NC(=O)[C@H](CC(C)C)NC(=O)[C@H](CC(C)C)NC(=O)CNC(=O)[C@@H](NC(=O)[C@@H]1CCCN1C(=O)[C@@H](NC(=O)[C@H](CC(=O)O)NC(=O)[C@H](CC(C)C)NC(=O)[C@H](CO)NC(=O)[C@H](CC(C)C)NC(=O)[C@@H](NC(=O)[C@@H](NC)[C@@H](C)CC)C(C)C)C(C)C)[C@@H](C)CC)[C@@H](C)CC)[C@@H](C)O)[C@@H](C)CC)C(=O)N[C@@H](C)C(=O)N[C@@H](CCC(=O)O)C(=O)N[C@H](C(N)=O)C(C)C [compound 202] (H-[NMeI]VLSLDVPIGLLQILLQQARARAAREQAK([AEEA-AEEA-γGlu-γGlu-C20 diacid])TN[Aib]EI[Nle]AEV-NH2),"EC50 ([1]; Table 4, library peptides having X^38 = Nle, read-out: hCRHR2 pEC50 (converted)): 0.0251 nM; EC50 ([2]; Table 4, library peptides having X^38 = Nle, read-out: hCRHR1 pEC50 (converted)): 794 nM"
0.2,3.98,CCCC[C@H](NC(=O)[C@@H](NC(=O)[C@H](CCC(=O)O)NC(=O)[C@H](C)NC(=O)[C@H](CC(N)=O)NC(=O)[C@@H](NC(=O)[C@H](CCCCNC(=O)COCCOCCNC(=O)COCCOCCNC(=O)CC[C@H](NC(=O)CC[C@H](NC(=O)CCCCCCCCCCCCCCCCCCC(=O)O)C(=O)O)C(=O)O)NC(=O)[C@H](C)NC(=O)[C@H](CCC(N)=O)NC(=O)[C@H](CCC(=O)O)NC(=O)[C@H](CCCNC(=N)N)NC(=O)[C@H](CC(C)C)NC(=O)[C@H](CCC(N)=O)NC(=O)[C@H](CCCNC(=N)N)NC(=O)[C@H](C)NC(=O)[C@H](CCCNC(=N)N)NC(=O)[C@H](C)NC(=O)[C@H](CCC(N)=O)NC(=O)[C@H](CCC(=O)O)NC(=O)[C@H](CC(C)C)NC(=O)[C@H](CC(C)C)NC(=O)[C@@H](NC(=O)[C@H](CCC(N)=O)NC(=O)[C@H](CC(C)C)NC(=O)[C@H](CC(C)C)NC(=O)CNC(=O)[C@@H](NC(=O)[C@@H]1CCCN1C(=O)[C@@H](NC(=O)[C@H](CC(=O)O)NC(=O)[C@H](CC(C)C)NC(=O)[C@H](CO)NC(=O)[C@H](CC(C)C)NC(=O)[C@@H](NC(=O)[C@@H](N)[C@@H](C)CC)C(C)C)C(C)C)[C@@H](C)CC)[C@@H](C)CC)[C@@H](C)O)[C@@H](C)CC)C(=O)N[C@@H](C)C(=O)N[C@@H](CCC(=O)O)C(=O)N[C@H](C(N)=O)C(C)C [compound 73] (H-IVLSLDVPIGLLQILLEQARARQLREQAK([AEEA-AEEA-γGlu-γGlu-C20 diacid])TNAEI[Nle]AEV-NH2),–
–,–,CCCC[C@H](NC(=O)[C@@H](NC(=O)[C@H](CCC(=O)O)NC(=O)[C@H](C)NC(=O)[C@H](CC(N)=O)NC(=O)[C@@H](NC(=O)[C@H](CCCCNC(=O)COCCOCCNC(=O)COCCOCCNC(=O)CC[C@H](NC(=O)CC[C@H](NC(=O)CCCCCCCCCCCCCCCCCCC(=O)O)C(=O)O)C(=O)O)NC(=O)[C@H](C)NC(=O)[C@H](CCCNC(=N)N)NC(=O)[C@H](CCC(=O)O)NC(=O)[C@H](CCCNC(=N)N)NC(=O)[C@H](C)NC(=O)[C@H](C)NC(=O)[C@H](CCCNC(=N)N)NC(=O)[C@H](C)NC(=O)[C@H](CCCNC(=N)N)NC(=O)[C@H](C)NC(=O)[C@H](CCC(N)=O)NC(=O)[C@H](CCC(=O)O)NC(=O)[C@H](CC(C)C)NC(=O)[C@H](CC(C)C)NC(=O)[C@@H](NC(=O)[C@H](CCC(N)=O)NC(=O)[C@H](CC(C)C)NC(=O)[C@H](CC(C)C)NC(=O)CNC(=O)[C@@H](NC(=O)[C@@H]1CCCN1C(=O)[C@@H](NC(=O)[C@H](CC(=O)O)NC(=O)[C@H](CC(C)C)NC(=O)[C@H](CO)NC(=O)[C@H](CC(C)C)NC(=O)[C@@H](NC(=O)[C@@H](N)[C@@H](C)CC)C(C)C)C(C)C)[C@@H](C)CC)[C@@H](C)CC)[C@@H](C)O)[C@@H](C)CC)C(=O)N[C@@H](C)C(=O)N[C@@H](CCC(=O)O)C(=O)N[C@H](C(N)=O)C(C)C [compound 67] (H-IVLSLDVPIGLLQILLEQARARAARERAK([AEEA-AEEA-γGlu-γGlu-C20 diacid])TNAEI[Nle]AEV-NH2),EC50 [1]: 0.126 nM; EC50 [2]: 2000 nM
0.251,2,CCCC[C@H](NC(=O)[C@@H](NC(=O)[C@H](CCC(=O)O)NC(=O)[C@H](C)NC(=O)[C@H](CC(N)=O)NC(=O)[C@@H](NC(=O)[C@H](CCCCNC(=O)COCCOCCNC(=O)COCCOCCNC(=O)CC[C@H](NC(=O)CC[C@H](NC(=O)CCCCCCCCCCCCCCCCCCC(=O)O)C(=O)O)C(=O)O)NC(=O)[C@H](C)NC(=O)[C@H](CCC(N)=O)NC(=O)[C@H](CCC(=O)O)NC(=O)[C@H](CCCNC(=N)N)NC(=O)[C@H](C)NC(=O)[C@H](CCC(N)=O)NC(=O)[C@H](CCCNC(=N)N)NC(=O)[C@H](C)NC(=O)[C@H](CCCNC(=N)N)NC(=O)[C@H](C)NC(=O)[C@H](CCC(N)=O)NC(=O)[C@H](CCC(=O)O)NC(=O)[C@H](CC(C)C)NC(=O)[C@H](CC(C)C)NC(=O)[C@@H](NC(=O)[C@H](CCC(N)=O)NC(=O)[C@H](CC(C)C)NC(=O)[C@H](CC(C)C)NC(=O)CNC(=O)[C@@H](NC(=O)[C@@H]1CCCN1C(=O)C1(NC(=O)[C@H](CC(=O)O)NC(=O)[C@H](CC(C)C)NC(=O)[C@H](CO)NC(=O)[C@H](CC(C)C)NC(=O)[C@@H](NC(=O)[C@@H](N)[C@@H](C)CC)C(C)C)CCCC1)[C@@H](C)CC)[C@@H](C)CC)[C@@H](C)O)[C@@H](C)CC)C(=O)N[C@@H](C)C(=O)N[C@@H](CCC(=O)O)C(=O)N[C@H](C(N)=O)C(C)C [compound 79] (H-IVLSLD[Ac5c]PIGLLQILLEQARARQAREQAK([AEEA-AEEA-γGlu-γGlu-C20 diacid])TNAEI[Nle]AEV-NH2),–
0.316,2.51,CCCC[C@H](NC(=O)[C@@H](NC(=O)[C@H](CCC(=O)O)NC(=O)[C@H](C)NC(=O)[C@H](CC(N)=O)NC(=O)[C@@H](NC(=O)[C@H](CCCCNC(=O)COCCOCCNC(=O)COCCOCCNC(=O)CC[C@H](NC(=O)CC[C@H](NC(=O)CCCCCCCCCCCCCCCCCCC(=O)O)C(=O)O)C(=O)O)NC(=O)[C@H](C)NC(=O)[C@H](CCC(N)=O)NC(=O)[C@H](CCC(=O)O)NC(=O)[C@H](CCCNC(=N)N)NC(=O)[C@H](C)NC(=O)[C@H](C)NC(=O)[C@H](CCCNC(=N)N)NC(=O)[C@H](C)NC(=O)[C@H](CCCNC(=N)N)NC(=O)[C@H](C)NC(=O)[C@H](CCC(N)=O)NC(=O)[C@H](CCC(=O)O)NC(=O)[C@H](CC(C)C)NC(=O)[C@H](CC(C)C)NC(=O)[C@@H](NC(=O)[C@H](CCC(N)=O)NC(=O)[C@H](CC(C)C)NC(=O)[C@H](CC(C)C)NC(=O)CNC(=O)[C@@H](NC(=O)[C@@H]1C[C@H](F)CN1C(=O)C1(NC(=O)[C@H](CC(=O)O)NC(=O)[C@H](CC(C)C)NC(=O)[C@H](CO)NC(=O)[C@H](CC(C)C)NC(=O)[C@@H](NC(=O)[C@@H](N)[C@@H](C)CC)C(C)C)CCCC1)[C@@H](C)CC)[C@@H](C)CC)[C@@H](C)O)[C@@H](C)CC)C(=O)N[C@@H](C)C(=O)N[C@@H](CCC(=O)O)C(=O)N[C@H](C(N)=O)C(C)C [compound 87] (H-IVLSLD[Ac5c][Pro(cis-4-F)]IGLLQILLEQARARAAREQAK([AEEA-AEEA-γGlu-γGlu-C20 diacid])TNAEI[Nle]AEV-NH2),–
